In PMC10124904, “Activation of Gcn2 by small molecules designed to be inhibitors” (The Journal of Biological Chemistry, 2023):
Where “and” joins values, the source holds several entries; their conditions need not be identical. Identical values can stand only once. One block for each compound: values may come before it.

Key:
Type in all cases: cell-based
[1] = molecular target: T1, Flag-Gcn2 K619A (Homo sapiens, UniProt Q9P2K8, K619A); assay: Atf4-Luc translational reporter, Gcn2 KO HEK293 cells expressing Flag-Gcn2 K619A; conditions: 50 nM Gcn2iB, 1 μM neratinib, 2 μM dovitinib or 2 μM dabrafenib, 6 h
T1 construct: Transomic Technologies) was inserted into pCDNA5; expressed in transfected cells; host or cells: HEK293 Gcn2 KO cells, transient transfection
T1 sequence (Q9P2K8 whole entry K619A): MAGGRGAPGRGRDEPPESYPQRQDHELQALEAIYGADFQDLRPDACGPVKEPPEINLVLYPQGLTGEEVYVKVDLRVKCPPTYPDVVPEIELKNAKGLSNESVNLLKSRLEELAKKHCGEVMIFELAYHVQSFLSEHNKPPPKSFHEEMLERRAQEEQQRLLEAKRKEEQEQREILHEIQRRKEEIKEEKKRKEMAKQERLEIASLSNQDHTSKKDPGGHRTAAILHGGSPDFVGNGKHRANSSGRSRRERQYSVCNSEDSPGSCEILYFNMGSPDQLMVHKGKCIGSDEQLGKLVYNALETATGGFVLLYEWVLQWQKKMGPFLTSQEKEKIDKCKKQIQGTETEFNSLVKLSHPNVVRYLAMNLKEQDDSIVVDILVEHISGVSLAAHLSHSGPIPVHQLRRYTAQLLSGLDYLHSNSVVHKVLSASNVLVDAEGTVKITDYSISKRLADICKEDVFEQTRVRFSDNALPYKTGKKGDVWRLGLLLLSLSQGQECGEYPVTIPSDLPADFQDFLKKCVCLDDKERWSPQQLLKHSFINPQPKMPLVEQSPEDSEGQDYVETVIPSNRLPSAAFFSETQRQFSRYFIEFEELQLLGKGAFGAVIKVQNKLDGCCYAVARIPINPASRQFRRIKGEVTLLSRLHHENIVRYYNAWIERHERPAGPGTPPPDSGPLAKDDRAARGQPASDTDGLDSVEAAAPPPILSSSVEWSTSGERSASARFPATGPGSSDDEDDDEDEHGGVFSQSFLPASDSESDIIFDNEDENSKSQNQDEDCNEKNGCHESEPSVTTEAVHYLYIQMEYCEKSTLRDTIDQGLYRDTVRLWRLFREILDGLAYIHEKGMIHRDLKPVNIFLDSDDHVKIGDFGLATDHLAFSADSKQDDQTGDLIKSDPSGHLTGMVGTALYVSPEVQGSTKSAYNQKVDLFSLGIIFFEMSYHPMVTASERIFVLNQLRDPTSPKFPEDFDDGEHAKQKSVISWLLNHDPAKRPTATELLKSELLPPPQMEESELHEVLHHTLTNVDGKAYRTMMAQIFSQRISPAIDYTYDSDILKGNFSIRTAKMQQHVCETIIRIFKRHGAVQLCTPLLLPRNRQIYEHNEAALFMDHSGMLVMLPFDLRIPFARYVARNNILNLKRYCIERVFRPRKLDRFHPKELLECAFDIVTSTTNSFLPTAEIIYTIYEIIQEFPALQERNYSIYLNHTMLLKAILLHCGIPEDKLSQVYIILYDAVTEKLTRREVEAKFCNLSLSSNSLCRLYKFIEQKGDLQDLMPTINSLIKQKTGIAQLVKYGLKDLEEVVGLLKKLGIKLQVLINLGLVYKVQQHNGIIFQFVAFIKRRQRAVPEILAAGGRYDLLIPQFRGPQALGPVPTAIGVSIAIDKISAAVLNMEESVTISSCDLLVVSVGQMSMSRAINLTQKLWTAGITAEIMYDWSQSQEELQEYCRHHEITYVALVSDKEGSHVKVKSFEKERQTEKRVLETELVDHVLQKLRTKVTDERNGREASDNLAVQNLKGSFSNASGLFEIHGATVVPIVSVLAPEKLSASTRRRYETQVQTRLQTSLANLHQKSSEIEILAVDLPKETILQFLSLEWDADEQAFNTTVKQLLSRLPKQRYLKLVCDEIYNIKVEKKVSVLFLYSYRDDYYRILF
Description: (§1) The human Gcn2 coding sequence from pENTR223-1 Gcn2 (NM_001013703; Transomic Technologies) was inserted into pCDNA5 to create an amino-terminal 3× flag tag fusion with Gcn2 by using an In-Fusion HD cloning kit and a three-way cloning reaction method. The resulting plasmid pCDNA5-Gcn2, referred to in the text as Flag-Gcn2, was used as a template to construct the mutant versions detailed in Table 1 by site-directed mutagenesis using an In-Fusion HD cloning kit (Takara Bio). The Gcn2 expressing plasmid was introduced transiently into the HEK293-Gcn2 KO cells as described in the following complementation section. Plasmid pMSCV-Gadd34-puro contains the human Gadd34 (PPP1R15A, NM_014330.5) gene subcloned into the NcoI/EcoRI sites of the retroviral vector pMSCV-puro ([24]).
(§2) For translational reporter assays, HEK293-Gcn2 KO cells were cotransfected with WT or mutant Gcn2 and the reporter Atf4-Luc and nano-luciferase plasmids and then treated with HF or Gcn2iB. Gcn2 activity was measured in a dual luciferase assay. To perform this experiment, HEK293-Gcn2 KO cells were seeded into 12-well plates at 50,000 cells/well. […] For experiments with Gadd34 expression, 100 ng of vector control or Gadd34 expression plasmid was included in the transfection. […] The Atf4-Luc and nano-luciferase signals were measured with Nano-Glo Dual-Luciferase Reporter Assay kit (Promega Cat #N1620) using a Turner Biosystems 20/20 luminometer. Firefly luciferase activity was normalized to nano-luciferase control for each of three biological replicates.

[2] = molecular target: T2, Gcn2 (Homo sapiens, UniProt Q9P2K8); assay: P(AAREx6)-Luc Atf4 transcriptional activity reporter in HEK293 cells; conditions: for dose response of Atf4 activity (P(AAREx6)-Luc): 2× serial dilution from 78 nM to 20 μM
T2 construct: HEK293 cells expressing endogenous WT Gcn2 (End WT); endogenous in cells; host or cells: HEK293 (HEK293A with integrated P(AAREx6)-Luc; HEK293/HEK293T)
T2 sequence (Q9P2K8 whole entry): as the sequence (Q9P2K8 whole entry K619A) above, with A619K counted along it
Procedure: HEK-derived cells were used in this study. HEK293T cells were obtained from American Type Culture Collection. HEK293A cells were purchased from Invitrogen. Cells were cultured in Dulbecco's modified Eagle's medium (DMEM) (Corning 10-013-CV) supplemented with 10% (vol/vol) fetal bovine serum (Corning 35-010-CV), 100 U/ml penicillin, and 0.1 mg/ml streptomycin (Hyclone SV30010), hereafter referred to as DMEM complete, at 37 °C in 5% CO2 humidified incubator. […] To create cells stably expressing a luciferase reporter for Atf4 transcription activity, HEK293A cells were transduced with a lentivirus encoding an Atf4 transcription reporter (P(AAREx6)-Luc), which consists of six copies of C/ebp-Atf4 consensus binding sequence (5′-[…]-3′) upstream of a minimal promoter followed by the firefly luciferase coding sequence. Selection of the stable expression of the luciferase reporter was selected in DMEM complete supplemented with 1 μg/ml puromycin.
For transcriptional reporter assays, HEK293-P(AAREx6)-Luc cells were seeded into 96-well plate at 10,000 cells/well and cultured in DMEM complete at 37 °C with 5% CO2 overnight. After 24 h, cells were treated with HF or Gcn2iB, as indicated. After 6 h of culture, the media was replaced with 1:1 dilution of DMEM complete to Bio-Glo luciferase assay reagent (Promega Cat # G7940). The assay plate was incubated at room temperature for 15 min at 200 rpm on rotary plate shaker and then luminescence was read on BioTek Synergy H1 microplate reader using 1 s integration time and gain setting between 135 and 200. Luciferase activity was measured as luminescence for each of three experiments per treatment.

[3] = molecular target: T2, Gcn2; assay: Immunoblot of ISR markers (p-Gcn2, p-eIF2α, Atf4) in HEK293 cells with endogenous Gcn2 (End. WT)
[4] = molecular target: T3, Flag-Gcn2 T899A (Homo sapiens, UniProt Q9P2K8, T899A); assay: Atf4-Luc translational reporter, Gcn2 KO HEK293 cells expressing Flag-Gcn2 T899A; conditions: 6 h; for increase in Atf4-Luc activity: T899A Gcn2, 50 nM Gcn2iB, 1 μM neratinib, 2 μM dovitinib or 2 μM dabrafenib
T3 construct: Transomic Technologies) was inserted into pCDNA5; expressed in transfected cells; host or cells: HEK293 Gcn2 KO cells, transient transfection
T3 sequence (Q9P2K8 whole entry T899A): as the sequence (Q9P2K8 whole entry K619A) above, with A619K, T899A counted along it
Description: as §1, §2

[5] = molecular target: T4, Flag-Gcn2 M2 (F1143L/R1144L) (Homo sapiens, UniProt Q9P2K8, F1143L/R1144L); assay: Atf4-Luc translational reporter, Gcn2 KO HEK293 cells expressing Flag-Gcn2 M2; conditions: 50 nM Gcn2iB, 1 μM neratinib, 2 μM dovitinib or 2 μM dabrafenib, 6 h
T4 construct: Transomic Technologies) was inserted into pCDNA5; expressed in transfected cells; host or cells: HEK293 Gcn2 KO cells, transient transfection
T4 sequence (Q9P2K8 whole entry F1143L/R1144L): as the sequence (Q9P2K8 whole entry K619A) above, with A619K, F1143L, R1144L counted along it
Description: as §1
(§3) For translational reporter assays, HEK293-Gcn2 KO cells were cotransfected with WT or mutant Gcn2 and the reporter Atf4-Luc and nano-luciferase plasmids and then treated with HF or Gcn2iB. Gcn2 activity was measured in a dual luciferase assay. To perform this experiment, HEK293-Gcn2 KO cells were seeded into 12-well plates at 50,000 cells/well. […] The Atf4-Luc and nano-luciferase signals were measured with Nano-Glo Dual-Luciferase Reporter Assay kit (Promega Cat #N1620) using a Turner Biosystems 20/20 luminometer. […]

[6] = molecular target: T2, Gcn2; assay: Atf4-Luc translational reporter in HEK293 cells (endogenous Gcn2); conditions: 6 h
[7] = molecular target: T5, Flag-Gcn2 WT (Homo sapiens, UniProt Q9P2K8); assay: Atf4-Luc translational reporter, Gcn2 KO HEK293 cells expressing Flag-Gcn2 WT; conditions: 50 nM Gcn2iB vs vehicle, 6 h
T5 construct: Transomic Technologies) was inserted into pCDNA5; expressed in transfected cells; host or cells: HEK293 Gcn2 KO cells, transient transfection of pCDNA5-Gcn2
T5 sequence (Q9P2K8 whole entry): as the sequence (Q9P2K8 whole entry K619A) above, with A619K counted along it
Description: as §1, §3

[8] = molecular target: T6, Flag-Gcn2 M802V (Homo sapiens, UniProt Q9P2K8, M802V); assay: Atf4-Luc translational reporter, Gcn2 KO HEK293 cells expressing Flag-Gcn2 M802V; conditions: 4 nM Gcn2iB, 6 h
T6 construct: Transomic Technologies) was inserted into pCDNA5; expressed in transfected cells; host or cells: HEK293 Gcn2 KO cells, transient transfection
T6 sequence (Q9P2K8 whole entry M802V): as the sequence (Q9P2K8 whole entry K619A) above, with A619K, M802V counted along it
Description: as §1, §3

[9] = molecular target: T7, Flag-Gcn2 M802F (Homo sapiens, UniProt Q9P2K8, M802F); assay: Atf4-Luc translational reporter, Gcn2 KO HEK293 cells expressing Flag-Gcn2 M802F; conditions: Gcn2iB concentrations up to 4 μM, 6 h
T7 construct: Transomic Technologies) was inserted into pCDNA5; expressed in transfected cells; host or cells: HEK293 Gcn2 KO cells, transient transfection
T7 sequence (Q9P2K8 whole entry M802F): as the sequence (Q9P2K8 whole entry K619A) above, with A619K, M802F counted along it
Description: as §1, §3

[10] = 2 μM tunicamycin, 6 h, immunoblot
[11] = 25 nM HF, time course up to 6 h
[12] = Gcn2iB pretreatment 30 min, then 12.5 nM HF 6 h

Compound: tunicamycin
p-eIF2α and Atf4 [3, 10]: induced p-eIF2α and Atf4
phosphorylation of Gcn2 (T899) [3, 10]: minimal phosphorylation of Gcn2

Compound: CCOc1cc2ncc(C#N)c(Nc3ccc(OCc4ccccn4)c(Cl)c3)c2cc1NC(=O)/C=C/CN(C)C [neratinib]
increase in Atf4-Luc activity [1]: no increase
dose response of Atf4 activity (P(AAREx6)-Luc) ([2]; 6 h): biphasic induction
increase in Atf4-Luc activity [4]: able to increase Atf4-Luc activity
increase in Atf4-Luc activity [5]: able to increase Atf4-Luc activity

Compound: O=C(CC1NCCCC1O)Cn1cnc2cc(Br)c(Cl)cc2c1=O (stereo not drawn) [HF, Halofuginone]
time at which expression of Atf4 was enhanced [3, 11]: 1 h
time to increased p-Gcn2 and p-eIF2α [3, 11]: ≤ 30 min
Atf4 levels ([3]; 100 nM HF, 6 h, immunoblot): significant reduction
Atf4-Luc expression ([6]; 25 nM HF alone): robust induction
increase in luciferase signal (P(AAREx6)-Luc) ([2]; 12.5 nM HF, 6 h): approximately 30 fold
P(AAREx6)-Luc activity ([2]; 25 nM HF alone, 6 h): robust induction

Compound: O=C(COc1ccc(Cl)c(F)c1)NC12CC(NC(=O)c3cnc(C(F)F)cn3)(C1)C2 [2B-Act]
effect of cotreatment on Gcn2iB-induced p-eIF2α and Atf4 levels ([3]; 1 μM A-92 or 2 μM 2B-Act pretreatment 30 min, then 50 nM Gcn2iB 6 h): lowered p-eIF2α and Atf4 levels
effect on biphasic induction of luciferase activity by Gcn2iB ([2]; pretreated 30 min with 1 μM A-92 or 2 μM 2B-Act, then Gcn2iB 6 h): ablated

Now from value to compound, other results behind:

increase in Atf4-Luc activity [1]: no increase
dose response of Atf4 activity (P(AAREx6)-Luc) ([2]; 6 h): biphasic induction
Compound: CN1CCN(c2ccc3nc(-c4c(N)c5c(F)cccc5[nH]c4=O)[nH]c3c2)CC1 [dovitinib]

time of maximal Atf4 expression ([3]; 50 nM Gcn2iB time course up to 6 h, WT cells): 6 h
induction of p-eIF2α ([3]; 50 nM Gcn2iB time course, WT cells, detected as early as 30 min): 2.7 fold
Gcn2iB concentration giving reductions in HF-induced Atf4 [3, 12]: ≥ 250 nM
Gcn2iB concentration giving reductions in HF-induced p-Gcn2 [3, 12]: ≥ 62.5 nM
Gcn2iB concentration above which p-Gcn2 was lowered below vehicle and Atf4 not appreciably induced ([3]; absence of HF, 6 h): Above 250 nM
effect on HF-induced Atf4-Luc expression ([6]; 25 nM HF + 2 μM Gcn2iB): sharply diminished
Levels Atf4-Luc, fold change upon treatment [7]: 2.7 fold and 3 fold
increase in Atf4-Luc activity [1]: no increase
effect on HF-induced P(AAREx6)-Luc activity ([2]; 25 nM HF + 2 μM Gcn2iB, 6 h): sharply reduced
Gcn2iB concentration at peak induction of luciferase activity ([2]; Gcn2iB only, absence of HF, 6 h): about 32 nM
peak induction of luciferase activity (P(AAREx6)-Luc) ([2]; Gcn2iB only, absence of HF, 6 h, biphasic): 7.8 fold
IC50 ([2]; Gcn2iB pretreatment 30 min, then 12.5 nM HF 6 h, read-out: IC50 for diminishing HF-induced P(AAREx6)-Luc luciferase signal): 73 nM
Levels Atf4-Luc, fold change upon treatment ([4]; 50 nM Gcn2iB vs vehicle, Flag-Gcn2 T899A): 2.8 fold
increase in Atf4-Luc activity [4]: able to increase Atf4-Luc activity
increase in Atf4-Luc activity relative to untreated M802V cells [8]: 2 fold
increase in Atf4-Luc activity [5]: able to increase Atf4-Luc activity
Compound: COc1ncc(Cl)cc1S(=O)(=O)Nc1ccc(F)c(C#Cc2cnc(N)nc2)c1F [Gcn2iB]
Atf4-Luc activity in Gcn2iB dose response [9]: maintained the same level of Atf4-Luc activity
